Reference: patent publication US20100216706A1, “Ghrelin Protects Substantia Nigra Dopamine Neurons” (priority 2007, published 2010)
Where “and” joins values, the source holds several entries; their conditions need not be identical. Equal values may be shown once. *: point of attachment. Octyl = CCCCCCCC*

Experiments:
[1] = target: growth hormone secretagogue receptor 1a (GHSR) on SNpc dopamine neurons, species of the tissue not stated for the experiment (mouse and/or rat); assay: cell-based or functional assay
TH neurons in the SNpc = assay: MPTP-induced TH cell loss in the SNpc (stereology, optical fractionator); format: in vivo, mice
Excerpt: (§1) Control animals were given saline. Animals were sacrificed and perfused 7 days later and processed for immunohistochemistry or HPLC for dopamine (DA) and metabolites. n=8-10 for ghrelin wt and ko mice; n=6 for GHSR wt/wt, homo/wt and homo/TG.
TH cell quantification: Free floating sections were stained with TH (1:5000, Chemicon International) and visualized with DAB using standard procedures.
Unbiased stereology methods were used to quantify TH immunoreactive cells in the SNpc. Cells were visualized by a Zeiss microscope and relayed via a MicroFibre digital camera (www(dot)optronics(dot)com) to a computer where they were counted using the optical fractionator with the sophisticated Stereolnvestigator software (MicroBrightField, Williston, Vt., USA). Every fourth section was collected through the SNpc, and TH cells were counted in grids randomly positioned by the software in the outlined counting area through all optical planes, thus creating a 3 dimensional counting area.
(§2) The observation that ghrelin promotes SNpc DA neuronal function, mitochondrial respiration and number raises the possibility that ghrelin may protect nigrostriatal dopaminergic system during increased cellular stress. […] In brief, mice were treated with daily IP injections of exogenous ghrelin (10 nmols) or saline for 14 days. Mice were injected immediately before the dark phase, and food was removed overnight since calorie intake and postprandial increases in glucose and insulin can suppress the action of ghrelin (Cummings et al., 2006, Physiol Behav 89: 71-84). Both ghrelin and saline treated mice were given 3 grams of standard chow the following morning at 9 am. […] After the subsequent 7 days of treatment (saline or ghrelin), TH immunoreactive neurons were counted blind by two independent researchers using the non-biased optical fractionator on the stereology program, Stereoinvestigator.

striatal dopamine = assay: Striatal dopamine after MPTP (HPLC); format: in vivo, mice; settings: saline 14 days, MPTP on day 7
Protocol: as §1
The samples were subsequently thawed in 0.4 ml of chilled 0.1 M perchloric acid and sonicated. Aliquots were taken for protein quantification using a spectrophotometric assay. Other aliquots were centrifuged, and DA levels were measured in supernatants by high pressure liquid chromatography (HPLC) with electrochemical detection. Concentrations of DA and metabolites were expressed as ng/mg protein (mean±SEM).
as §2

[2] = Body weight gain after MPTP in ghrelin wt and ko mice; format: in vivo; settings: from day 1 to day 7 after MPTP
Excerpt: as §1
Wt and ko mice treated with saline gained a similar amount of weight over the 7 days (wt saline 1.39±0.19 g vs ko saline 1.59±0.49 g).

[3] = Matsumoto et al., 2001; cited from earlier work

ghrelin (unlabeled, Phoenix Pharmaceuticals) (peptide)
action potential frequency of SNpc DA neurons (whole-cell current clamp, brain slices) [1]: 132 % of control

CN1CC=C(c2ccccc2)CC1 [MPTP, 1-methyl-4-phenyl-1,2,5,6 tetrahydropyridine]
TH-immunoreactive cells in SNpc, ghrelin−/− mice (TH neurons in the SNpc; MPTP 30 mg/kg IP, 7 days, ko saline 8580±78): 3691±550
TH-immunoreactive cells in SNpc, ghrelin+/+ mice (TH neurons in the SNpc; MPTP 30 mg/kg IP, 7 days, wt saline 9105±342): 6688±610
TH neurons in SNpc, GHSR homo/TG (TH-only) mice (TH neurons in the SNpc; MPTP, homo/TG saline 12293±1123): 9401±743
TH neurons in SNpc, GHSR homo/wt (null) mice (TH neurons in the SNpc; MPTP, homo/wt saline 11590±1133): 6582±636
TH neurons in SNpc, GHSR wt/wt mice (TH neurons in the SNpc; MPTP, wt/wt saline 11902±713): 9171±765
Dopamine cell loss compared to controls, saline treatment after MPTP lesion (TH neurons in the SNpc; saline 14 days, MPTP on day 7): 49%
Total TH neurons in SNpc, sal/MPTP (TH neurons in the SNpc; wt mice, saline 14 days, MPTP 30 mg/kg IP on day 7, sal/sal 11283±342): 5750±432
Loss of striatal dopamine vs controls, sal/MPTP (striatal dopamine): 65%
Striatal dopamine concentration, sal/MPTP (striatal dopamine; sal/sal 147.4±10.2): 51.4±2.7 ng/mg protein
Body weight gain, ghrelin ko mice ([2]; ko saline 1.59±0.49): 1.37 ± 0.15 g
Body weight gain, ghrelin wt mice ([2]; wt saline 1.39±0.19): 2.16 ± 0.10 g and 2.17 ± 0.10 g

5-aminopentanoyl-Ser(Octyl)-Phe-Leu-aminoethylamide ({5‑aminopentanoyl}-Ser(Octyl)-Phe-Leu-aminoethylamide; also: acylation site at position 3; listed as Homo sapiens)
Ghrelin activity [3]: potent ghrelin activity
